Experimental data taken from patent EP2626073A1, “Compound for use in the prevention and/or treatment of a neurogenerative disease or a disease involving an activation of phosphodiesterase-4 (PDE4)” (Harmonic Pharma, priority 2012, dated 2013).

Legend:
[1] = target: PDE4; experiment: PDE4 isolated enzyme two-step radioenzymatic PDE assay; assay type: biochemical; settings: 1 µM cAMP substrate, 30°C, 30 min; read-out: inhibition concentration value (IC50)
[2] = test system: Rat cortical neurons; experiment: Aβ oligomer-induced neuronal death, MTT assay; assay type: cell-based, Wistar rat; settings: 24 h
Protocol: Cell culture: Cortical neurons from embryonic day 16-17 Wistar rat fetuses were prepared as follows. Dissociated cortical cells were plated at 4.5-5.0 10^4 cells/cm^2 in plastic dishes precoated with 1.5 mg/mL polyornithine (Sigma). Cells were cultured in a chemically defined Dulbecco's modified eagle's/F12 medium free of serum (Gibco) and supplemented with hormones, proteins and salts. Cultures were kept at 35°C in a humidified 5% CO2 atmosphere, and at 6-7 DIV, cortical population was determined to be at least 97% neuronal by immunostaining.
Preparation of low-n β-amyloid (Aβ) oligomers: The peptide used is Aβ1-42 from Bachem (ref H1368, batch number: 1025459). The oligomeric preparation contains a mixture of stable dimers, trimers and tetramers of Aβ1-42 peptide, as well as monomeric forms of the peptide.
Preparation of tivozanib solution: Tivozanib was dissolved in DMSO. A stock solution (10 mM DMSO) was prepared, and aliquots were stored at -20 °C before use.
Treatment and measurement of cell viability: All experiments were done in 48 well plates. […] Following 24h of incubation, neuronal viability was monitored using the MTT assay (Garcia et al., The Journal of Neuroscience, June 2,2010, 30(22), 7516-7527; Desbene et al., Neurobiology of Aging, 33 (2012) 1123.e17-1123.e-29). Data were obtained from one experiment with 4 determinations each and expressed as means + SD.

[3] = test system: Male C57BL/6 mice; experiment: Y-maze test of spatial working memory after icv Aβ oligomers; assay type: in vivo
Protocol: Animals: All animal experiments were carried out according to the National Institute of Health (NIH) guidelines for the care and use of laboratory animals, and approved by the French Ministry for Research and Technology. Animals were housed at a standard temperature (22±1°C) and in a light-controlled environment (lights on from 7 am to 8 pm) with ad libitum access to food and water. Upon arrival, Male C57BL/6 mice (C57BL/6J Rj, ref SC-CJ-12w-M, Janvier, France) were group housed. From 1 week before the experiment started and until the end of the experiment, mice were individually housed. Animals were monitored twice-a-day by laboratory personnel (8 am and 4 pm). […]
Surgery and intracerebroventricular (icv) infusion of low-n Aβ oligomers: Immediate spatial working memory performance was assessed by recording spontaneous alternation behavior in a Y-maze system, as previously described (Youssef et al., Neurobiology of Aging, 29 (2008) 1319-1333; Garcia et al., The Journal of Neuroscience, June 2,2010, 30(22) 7516-7527). […]
Investigation of the spatial working memory - Y maze test: Immediate spatial working memory performance was assessed by recording spontaneous alternation behavior in a Y-maze system, as previously described (Youssef et al., 2008; Garcia et al., 2010, see references above). […]

[4] = test system: cAMP level in HEK293 cells; experiment: Measurement of cAMP level by ELISA; assay type: cell-based
Protocol: Measurement of cAMP level: HEK293 cells were cultured in DMEM medium containing 10 % FCS. Cells were plated in 12-well plates at a density of 400.000 cells per well and cultured for 24h at 37°C in a humidified 6% CO2 atmosphere. Cells were then incubated for 1 h with increasing concentrations of tivozanib and then treated with vehicle or 25 µM forskolin for 15 minutes. Following washing steps and cell lysis, cellular level of cAMP level was monitored using an ELISA assay (Cyclic AMP XP assay kit - Cell signaling). Data are from 2 experiments performed in duplicate. Data are represented as fold increase of cAMP as compared to experiment using forskolin only, designed as 1.0 (figure 7).
Effects of tivozanib on cAMP level in HEK293 cells: In order to evaluate the potential effect of tivozanib on PDE4 activity in living cells, the HEK293 cell line was used. These cells are widely used for identification and validation of PDE4 modulators in mild as well as high throughput screening assays. Indeed, the control of cAMP level and hydrolysis in HEK293 cells are predominantly supported by PDE4.

Molecule	IC50 [1] [µM]	Aβ oligomer-induced cell death (cell viability, MTT) ([2]; tivozanib up to 10 µM added simultaneously with 1 µM Aβ1-42 oligomers)	behavior and spontaneous alternation performance ([3]; group C: 30 mg/kg/day per os, vehicle icv, test day +4)	spatial working memory (spontaneous alternation) ([3]; group D: 30 mg/kg/day per os day -2 to +4, Aβ oligomers 50 pmol icv day 0, test day +4)	cAMP level ([4]; absence of forskolin, increasing concentrations up to 50 µM, 1 h)	cAMP level ([4]; presence of 25 µM forskolin for 15 minutes, increasing concentrations, 1 h pre-incubation)	decrease of cell viability ([2]; 1 µM Aβ1-42 oligomers alone, figure 6B CTRL) [%]
COc1cc2nccc(Oc3ccc(NC(=O)Nc4cc(C)on4)c(Cl)c3)c2cc1OC [tivozanib, N-{2-chloro-4-[(6,7-dimethoxy-4-quinolyl)oxy]-phenyl}-N'-(5-methyl-3-isoxazolyl)urea]	4.8	protected cells towards Aβ oligomer-induced cell death	displayed a normal behavior	significantly improved spatial working memory	did not result in an increase of cAMP level	dose-response accumulation of cAMP	–
Aβ1-42 oligomers	–	–	–	–	–	–	~40
